US20120270935A1, “FORMULATIONS” (priority 2009, published 2012)
≈ marks a conversion by molar mass, not a printed value. Read-outs that look alike come from different tables or passages of the source.

Legend:
P. acnes NCTC 737 = experiment: Minimum bactericidal concentration (MBC) assay; assay type: cell-based, Propionibacterium acnes; details: compound in DMSO, triplicate
Procedure: The first test micro-organism used was Propionibacterium acnes NCTC 737. This is a propionibacterial strain and is the type strain of the […]; it is fully susceptible to antibiotics.
The propionibacteria were cultured and maintained on Wilkins-Chalgren Anaerobe Medium (agar and broth) at pH 6.0; all cultures were incubated anaerobically at 37° C. for 72 hours.
This assay, normally carried out after an MIC assay, determines the minimum concentration of a compound that is lethal to the micro-organism being tested.
These samples were then individually sub-cultured on antibiotic-free agar medium, under the incubation conditions described above. Following incubation they were examined visually for microbial growth.
DDA assays, as described above, were carried out using as the test formulation the gel prepared in Example 2B above. Also tested was the Example 2B gel minus the Klucel™ thickener, which was also subjected to MIC and MBC assays. For the DDAs, which were performed in triplicate, 100 μl of the relevant formulation was loaded onto each disc, and zones of inhibition were recorded after 3 days' anaerobic incubation at 37° C. The MIC and MBC tests were performed in duplicate and the results recorded after 3 days and 7 days respectively, post-subculture onto drug-free medium.
The compounds copper (II) usnate (Just for Today Ltd), sodium usnate (Yick-Vic Chemicals) and usnic acid (Sigma-Aldrich) were tested against P. acnes NCTC 737, using MIC, MBC and DDA assays as described above. For copper usnate and usnic acid, supplemented DDA assays were also carried out. DMSO was used as the solvent for all three test compounds. For the DDAs, 200 μg of the relevant test compound was loaded onto each disc. The MIC and MBC assays were conducted in triplicate, as were the DDAs for copper usnate.

S. mutans ATCC 25175 = experiment: MBC assay; assay type: cell-based, Streptococcus mutans; details: Wilkins-Chalgren broth pH 7 (±0.2)
Text: (§1) (a) staphylococci. The Staphylococcus aureus strain used was ATCC 29213. S. aureus and other staphylococci are common causes of a wide range of skin, skin structure and wound infections; S. aureus is also known to exacerbate eczema. The ATCC 29213 strain is known to be susceptible to beta-lactam antibiotics such as methicillin. The Staphylococcus epidermidis strain used was NCTC 11047. Staph. epidermidis forms part of the resident flora of skin and is an opportunistic pathogen which can cause biofilms to grow for instance on plastic surgical implants such as catheters. Unless otherwise stated, the staphylococci were cultured and maintained on Mueller-Hinton Medium (agar and broth) at pH 7.2; cultures were incubated aerobically at 37° C. for 19-20 hours, at pH 7 (±0.2). (b) C. striatum NCTC 764. Corynebacterium striatum is closely related to organisms (aerobic diphtheroids of the genus Corynebacterium) that cause body odour. It was cultured and maintained on Mueller-Hinton medium (agar and broth). All cultures were incubated aerobically at 37° C. for 72 hours, at pH 7 (±0.2). (c) streptococci. The strains tested were S. mutans ATCC 25175 and S. pyogenes ATCC 12344. S. mutans is a Gram-positive, microaerophilic bacterium which plays a significant role in dental caries and in infective endocarditis. Streptococcus pyogenes is associated with skin, soft tissue, burn and wound infections. […]

C. striatum NCTC 764 = experiment: MIC assay; assay type: cell-based, Corynebacterium striatum; details: triplicate
Text: as §1, with “infections. S. mutans was cultured and maintained on Wilkins-Chalgren Anaerobe medium+1 g/L glucose (agar and broth); it was incubated in air at 37° C. for 48 hours, at pH 7 (±0.2) with 5% carbon dioxide.” for “infections.”
This is a standard international method for quantitatively assessing the antimicrobial activity of a compound in a liquid medium. […]
The wells were inoculated with a liquid suspension of freshly grown micro-organism and incubated under the conditions described above. […] The MIC value was recorded as the lowest concentration of test compound required to inhibit microbial growth, ie the lowest concentration for which the liquid in the well remained clear. […]

SMILES	MBC (P. acnes NCTC 737)	MBC (S. mutans ATCC 25175)	MIC (C. striatum NCTC 764)	MBC (P. acnes NCTC 737; Cutibacterium acnes, NCTC737, read-out: MBC)	MBC (S. mutans ATCC 25175; Streptococcus mutans, ATCC25175, read-out: MBC)	MIC (C. striatum NCTC 764; Corynebacterium striatum, NCTC764, read-out: MIC)
CC(=O)c1c([O-])c(C)c([O-])c2c1OC1=CC(=O)C(C(C)=O)C(=O)C12C.[Cu+2] (stereo not drawn) [Copper usnate, copper (II) usnate]	1.95 µg/mL	31.25 µg/mL	3.9 µg/mL	–	–	–
CC(=O)c1c(O)c(C)c(O)c2c1OC1=CC(=O)C(C(C)=O)C(=O)C12C (stereo not drawn) [Usnic acid, 2,6-diacetyl-7,9-dihydroxy-8,9b-dimethyl-1,3(2H,9bh)-dibenzofurandione]	–	–	–	31.2 µg/mL (≈ 90.8 µM)	125 µg/mL (≈ 363 µM)	7.8 µg/mL (≈ 22.7 µM)
